From patent US20100316673A1, “NA[…]” (priority 2009, published 2010)
Entries after “also recorded” stand apart in the source; their conditions may differ.

Test system: virus
Experiment: Virus inactivation by detergent component versus nanoemulsion
Assay type: cell-based
Settings: at concentrations equivalent to 11% X8P (BCTP)
Text: The nanoemulsions structure of the certain embodiments of the emulsions of the present invention may play a role in their biocidal activity as well as contributing to the non-toxicity of these emulsions. […] Adding the oil phase to the detergent and solvent markedly reduces the toxicity of these agents in tissue culture at the same concentrations. […] It should be noted that when all the components of X8P are combined in one composition but are not in a nanoemulsion structure, the mixture is not as effective as an antimicrobial as when the components are in a nanoemulsion structure.
Individual components of nanoemulsions (e.g. in an immunogenic composition of the present invention) can function both to inactivate a pathogen as well as to contribute to the non-toxicity of the emulsions. […] Adding the oil phase to the detergent and solvent markedly reduces the toxicity of these agents in tissue culture at the same concentrations. […] Furthermore, when all the components of BCTP are combined in one composition but are not in a nanoemulsion structure, the mixture is not as effective at inactivating a pathogen as when the components are in a nanoemulsion structure.

TRITON X-100 [TRITON-X100]
biocidal activity against virus (ability to inactivate a virus): less biocidal activity; also recorded: less ability to inactivate a virus
